{"source": "patent US6773610B2", "about": "“Method for controlling biofilm” (priority 1999, dated 2004)", "origin": "cited, not measured here", "tested_on": "bacteria and viruses", "details": "versus chlorine", "data": [{"smiles": "O=[O+][O-]", "note": "[Ozone]", "values": [{"measurement": "Speed of deactivation of bacteria and viruses relative to chlorine", "result": 3125, "unit": "times faster"}]}]}
